Patent US20140303092A1 (CHIMERIX, INC., priority 2011, published 2014)

Assay: Study HDP-CDV-201: safety and tolerability (adverse events, laboratory abnormalities, discontinuations)
Type: in vivo, human (adult allogeneic HSCT recipients)
Settings: 200 mg BIW
Protocol: Clinical Studies of HDP-CDV were performed and described in detail in the following Examples. For example, HDP-CDV-201 is a placebo-controlled, dose-escalating trial in HSCT CMV (R+) recipients, evaluating the ability of HDP-CDV to prevent or control CMV infection was carried out. Five cohorts were established in which participants or subjects received either placebo or the HDP-CDV orally, in doses ranging from 40 mg weekly (QW) to 200 mg twice weekly (BIW). Subjects who were post-HSCT were enrolled at the time of engraftment and randomized to HDP-CDV or placebo (3 to 1 ratio) and received blinded therapy until approximately 100 day post-transplantation. HDP-CDV doses were 40 mg QW, 100 mg QW, 200 mg QW, 200 mg BIW and 100 mg BIW. Escalation to the next dose was decided by the data monitoring committee after review of the safety data from the previous Cohort. Subjects who developed CMV disease or CMV infection requiring pre-emptive therapy with local standard of care were discontinued from blinded therapy and followed for 4 weeks. Subjects who completed treatment with blinded therapy were followed for 8 weeks post-therapy.
Data from Study HDP-CDV-201 also provided characterization of the safety and tolerability profile of HDP-CDV when administered for the prevention or control of CMV infection in high risk (R^+) post-HSCT adult subjects.
The Safety population (SAFETY) included all randomized subjects who took at least one dose of study treatment. This population was used to summarize safety outcomes based on the treatment actually received, in cases where a subject was treated contrary to the randomization schedule.
The safety and tolerability profile of HDP-CDV, including subject demographics and Baseline characteristics; the AE profile; and laboratory abnormalities of interest were analyzed in the cohorts followed in this investigation.
Subjects completing the treatment period received a full course of study medication; those completing the entire study attended visits through 8 weeks of follow up. Subjects who discontinued treatment may have done so for protocol specified reasons (e.g. development of clinically significant CMV infection requiring preemptive treatment with excluded anti-CMV medications) or for other reasons (e.g., withdrawal, adverse events, loss to follow-up). The disposition of subjects in Study HDP-CDV-201 during the double-blind, placebo-controlled treatment period (through Week 11) is listed by dosing Cohort in TABLE 23.
Adverse events were examined by severity to ensure that all safety signals were identified in this study population. Because of the frequency of events in HSCT recipients, particular attention was given to evaluation of Grade 3 […], 4 (severe), and 5 (fatal) adverse events.
Only those preferred terms for which at least one Grade 3 or higher event was experienced in any treatment group are listed. Cytomegalovirus-related AEs are excluded from this analysis.
HDP-CDV is a lipid conjugate of CDV. Because CDV is known to have adverse effects on renal function and bone marrow, decreased GFR and persistent neutropenia were identified as AEs of special interest. Key renal and hematological (TABLE 30) laboratory parameters were measured and listed below by Study HDP-CDV-201 treatment groups. TABLE 30 includes abnormal levels of serum creatinine, neutrophils, platelets, WBCs, and hemoglobin and includes data at Screening and during the treatment period.
A common metric for unit based dosing of medications is by weight (mg/kg). When the distribution of weights was examined for all subjects participating in the study, the median was 78 kg and the lower 25th percentile weight was approximately 65 kg, which translates to a cut-off of ˜3 mg/kg for a 200 mg total weekly dose. Based upon this approach, a cut-off of 3 mg/kg was used to assess the frequency of diarrhea and associated GI AEs reported for the subjects in Cohorts 3 or 4a (TABLE 40).

Structure (SMILES): CCCCCCCCCCCCCCCCOCCCOP(=O)(O)COC(CO)Cn1ccc(N)nc1=O (stereo not drawn) [HDP-CDV]
- TEAE Abdominal pain, Grade 3: 0
- TEAE Abdominal pain, Grade 4: 0
- TEAE Abdominal pain, Grade 5: 0
- TEAE Acute GVHD, Frequency: 24 (80.0%)
- TEAE Acute GVHD, Grade 2: 8 (26.6%)
- TEAE Acute GVHD, Grade 3: 10 (30.0%)
- TEAE Acute GVHD, Grade 4: 2 (6.7%)
- TEAE Acute GVHD, Grade 5: 3 (10.0%)
- TEAE Arthralgias, Frequency: 1 (3.3%)
- TEAE Arthralgias, Grade 2: 1 (3.3%)
- TEAE Arthralgias, Grade 3: 0
- TEAE Arthralgias, Grade 4: 0
- TEAE Arthralgias, Grade 5: 0
- TEAE Back Pain, Frequency: 3 (10.0%)
- TEAE Back Pain, Grade 2: 1 (3.3%)
- TEAE Back Pain, Grade 3: 0
- TEAE Back Pain, Grade 4: 0
- TEAE Back Pain, Grade 5: 0
- TEAE Decreased appetite, Frequency: 5 (16.7%)
- TEAE Decreased appetite, Grade 2: 4 (13.3%)
- TEAE Decreased appetite, Grade 3: 0
- TEAE Decreased appetite, Grade 4: 0
- TEAE Decreased appetite, Grade 5: 0
- TEAE Diarrhea, Frequency: 21 (70.0%)
- TEAE Diarrhea, Grade 2: 8 (26.7%)
- TEAE Diarrhea, Grade 3: 11 (36.7%)
- TEAE Diarrhea, Grade 4: 0
- TEAE Diarrhea, Grade 5: 0
- TEAE Fatigue, Frequency: 0
- TEAE Fatigue, Grade 2: 0
- TEAE Fatigue, Grade 3: 0
- TEAE Fatigue, Grade 4: 0
- TEAE Fatigue, Grade 5: 0
- TEAE GGT Increased, Frequency: 3 (10.0%)
- TEAE GGT Increased, Grade 2: 0
- TEAE GGT Increased, Grade 3: 1 (3.3%)
- TEAE GGT Increased, Grade 4: 1 (3.3%)
- TEAE GGT Increased, Grade 5: 0
- TEAE Generalized oedema, Frequency: 3 (10.0%)
- TEAE Generalized oedema, Grade 2: 0
- TEAE Generalized oedema, Grade 3: 2 (6.7%)
- TEAE Generalized oedema, Grade 4: 0
- TEAE Generalized oedema, Grade 5: 0
- TEAE Hyperbilirubinaemia, Frequency: 5 (16.7%)
- TEAE Hyperbilirubinaemia, Grade 2: 1 (3.3%)
- TEAE Hyperbilirubinaemia, Grade 3: 0
- TEAE Hyperbilirubinaemia, Grade 4: 1 (3.3%)
- TEAE Hyperbilirubinaemia, Grade 5: 0
- TEAE Hyperglycaemia, Frequency: 8 (26.7%)
- TEAE Hyperglycaemia, Grade 2: 5 (16.7%)
- TEAE Hyperglycaemia, Grade 3: 2 (6.7%)
- TEAE Hyperglycaemia, Grade 4: 0
- TEAE Hyperglycaemia, Grade 5: 0
- TEAE Hyperkalemia, Frequency: 3 (10.0%)
- TEAE Hyperkalemia, Grade 2: 1 (3.3%)
- TEAE Hyperkalemia, Grade 3: 1 (3.3%)
- TEAE Hyperkalemia, Grade 4: 0
- TEAE Hyperkalemia, Grade 5: 0
- TEAE Hypocalcaemia, Frequency: 3 (10.0%)
- TEAE Hypocalcaemia, Grade 2: 1 (3.3%)
- TEAE Hypocalcaemia, Grade 3: 1 (3.3%)
- TEAE Hypocalcaemia, Grade 4: 0
- TEAE Hypocalcaemia, Grade 5: 0
- TEAE Hypokalaemia, Frequency: 5 (16.7%)
- TEAE Hypokalaemia, Grade 2: 1 (3.3%)
- TEAE Hypokalaemia, Grade 3: 1 (3.3%)
- TEAE Hypokalaemia, Grade 4: 0
- TEAE Hypokalaemia, Grade 5: 0
- TEAE Hyponatraemia, Frequency: 2 (6.7%)
- TEAE Hyponatraemia, Grade 2: 0
- TEAE Hyponatraemia, Grade 3: 0
- TEAE Hyponatraemia, Grade 4: 0
- TEAE Hyponatraemia, Grade 5: 0
- TEAE LFT Abnormal, Frequency: 3 (10.0%)
- TEAE LFT Abnormal, Grade 2: 1 (3.3%)
- TEAE LFT Abnormal, Grade 3: 1 (3.3%)
- TEAE LFT Abnormal, Grade 4: 0
- TEAE LFT Abnormal, Grade 5: 0
- TEAE Leukocytosis, Frequency: 3 (10.0%)
- TEAE Leukocytosis, Grade 2: 1 (3.3%)
- TEAE Leukocytosis, Grade 3: 0
- TEAE Leukocytosis, Grade 4: 0
- TEAE Leukocytosis, Grade 5: 0
- TEAE Nausea, Frequency: 11 (36.7%)
- TEAE Nausea, Grade 2: 6 (20.0%)
- TEAE Nausea, Grade 3: 1 (3.3%)
- TEAE Nausea, Grade 4: 0
- TEAE Nausea, Grade 5: 0
- TEAE Neutropenia, Frequency: 4 (13.3%)
- TEAE Neutropenia, Grade 2: 0
- TEAE Neutropenia, Grade 3: 1 (3.3%)
- TEAE Neutropenia, Grade 4: 2 (6.7%)
- TEAE Neutropenia, Grade 5: 0
- TEAE Pneumonia, Frequency: 1 (3.3%)
- TEAE Pneumonia, Grade 2: 0
- TEAE Pneumonia, Grade 3: 1 (3.3%)
- TEAE Pneumonia, Grade 4: 0
- TEAE Pneumonia, Grade 5: 0
- TEAE Pyrexia, Frequency: 2 (6.7%)
- TEAE Pyrexia, Grade 2: 0
- TEAE Pyrexia, Grade 3: 0
- TEAE Pyrexia, Grade 4: 0
- TEAE Pyrexia, Grade 5: 0
- TEAE Renal Failure, Frequency: 0
- TEAE Renal Failure, Grade 2: 0
- TEAE Renal Failure, Grade 3: 0
- TEAE Renal Failure, Grade 4: 0
- TEAE Renal Failure, Grade 5: 0
- TEAE Staphylococcal Bacteremia, Frequency: 1 (3.3%)
- TEAE Staphylococcal Bacteremia, Grade 2: 0
- TEAE Staphylococcal Bacteremia, Grade 3: 1 (3.3%)
